Laboratory results taken from patent US20240116877A1, “KIT KINASE INHIBITORS AND METHODS OF USE THEREOF” (Deciphera Pharmaceuticals, LLC, priority 2021, published 2024).
Like-named read-outs stand apart in the source and are kept apart here.

Columns and labels:
GIST 430 cells = experiment: GIST 430 Cell Proliferation Assay (resazurin); type: cell-based; conditions: Homo sapiens; GIST430 cell proliferation
Outline: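 Five thousand cells per well were exposed to serially diluted compound in complete growth medium for 115 h at 37 degrees Celsius, 5% CO2. Resazurin was then added for a further 5 h, fluorescence read at 540 nm excitation/600 nm emission, and IC50 values calculated.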

c-KIT kinase (uKIT) = c-KIT kinase (uKIT) (Homo sapiens (Human), UniProt P10721); experiment: Biochemical Assay for uKIT (coupled pyruvate kinase/lactate dehydrogenase assay); conditions: Inhibition of biochemical activity of uKIT kinase; 1 mM ATP
c-KIT kinase (uKIT), sequence (P10721 other isoform, or with tags, fused parts or gaps): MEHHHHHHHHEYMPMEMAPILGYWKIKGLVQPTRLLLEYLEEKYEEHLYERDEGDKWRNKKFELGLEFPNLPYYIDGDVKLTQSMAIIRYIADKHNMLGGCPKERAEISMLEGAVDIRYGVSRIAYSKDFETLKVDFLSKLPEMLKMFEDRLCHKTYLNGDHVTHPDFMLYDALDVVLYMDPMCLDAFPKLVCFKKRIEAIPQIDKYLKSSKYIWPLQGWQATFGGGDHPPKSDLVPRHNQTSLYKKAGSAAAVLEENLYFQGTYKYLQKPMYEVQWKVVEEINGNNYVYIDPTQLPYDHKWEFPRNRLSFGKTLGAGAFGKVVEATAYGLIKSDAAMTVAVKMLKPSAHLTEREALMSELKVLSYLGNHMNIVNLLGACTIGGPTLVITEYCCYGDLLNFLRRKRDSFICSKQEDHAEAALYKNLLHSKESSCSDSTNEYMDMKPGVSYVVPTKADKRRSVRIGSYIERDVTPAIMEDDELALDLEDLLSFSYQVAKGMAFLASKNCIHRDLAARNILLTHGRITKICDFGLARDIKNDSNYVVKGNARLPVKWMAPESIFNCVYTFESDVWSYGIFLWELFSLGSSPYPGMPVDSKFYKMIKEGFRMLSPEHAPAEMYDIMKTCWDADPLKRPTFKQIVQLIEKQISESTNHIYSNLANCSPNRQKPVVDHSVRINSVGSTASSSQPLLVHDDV
Outline: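 IC50 from percent inhibition of reaction rate over 2-3 h, relative to no-compound and known-inhibitor controls. KIT enzyme (16 nM or 4.36 nM, two sequences) ran with 1 mM ATP and 0.7 mg/mL PE4Y in Tris pH 7.5, 30° C; ATP turnover coupled to NADH loss at 340 nm.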

Ba/F3 KIT mutant cells = experiment: Ba/F3 mutant KIT Cell Proliferation Assays (resazurin); type: cell-based; conditions: Mus musculus, BaF3
Outline: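 IC50 values come from resazurin fluorescence (ex 540, em 600) after 5 h dye exposure, added as a 440 μM solution. Cells were IL-3-independent Ba/F3 expressing mutant KIT from a lentiviral vector, puromycin-selected.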

[1] = Ba/F3 KIT AYdup-V654A mutant cell proliferation, read-out: AYdup-V654A IC50
[2] = Ba/F3 KIT exon11del-V654A mutant cell proliferation, read-out: exon11del-V654A IC50
[3] = Ba/F3 KIT exon11del-Y823D mutant cell proliferation, read-out: exon11del-Y823D IC50

| IC50 (c-KIT kinase (uKIT)) [nM] | IC50 (Ba/F3 KIT mutant cells; Ba/F3 KIT AYdup mutant cell proliferation, read-out: AYdup IC50) [nM] | IC50 (Ba/F3 KIT mutant cells; Ba/F3 KIT AYdup-D816G mutant cell proliferation, read-out: AYdup-D816G IC50) [nM] | IC50 (Ba/F3 KIT mutant cells; [1]) [nM] | IC50 (Ba/F3 KIT mutant cells; [2]) [nM] | IC50 (Ba/F3 KIT mutant cells; [3]) [nM] | Structure (SMILES) | IC50 (GIST 430 cells) [nM] |
| --- | --- | --- | --- | --- | --- | --- | --- |
| 10 to 100 | ≤ 10 | 10 to 100 | 10 to 100 | ≤ 10 | 10 to 100 | COCCOc1cc(F)c2c(Nc3ccc(NC(=O)CC(=O)N(C)C(C)(C)C)cc3)ncnc2c1 [Example 143] | ≤ 10 |
| 10 to 100 |  |  | 10 to 100 | 10 to 100 | 10 to 100 | COCCCc1ccc2c(Nc3ccc(NC(=O)NCCC(C)(C)F)cc3)cnnc2c1 [Example 190, 1-(3-fluoro-3-methylbutyl)-3-(4-((7-(3-methoxypropyl)cinnolin-4-yl)amino)phenyl)urea] | 10 to 100 |
| 100 to 1000 |  |  | 100 to 1000 | 100 to 1000 |  | COCCOc1cc(F)c2c(Nc3ccc(NC(=O)CC(=O)NC4(C)COC4)cc3)ncnc2c1 [Example 144] | 100 to 1000 |
| 10 to 100 |  |  | 10 to 100 | 10 to 100 | 100 to 1000 | COCCOc1cc(F)c2c(Nc3ccc(NC(=O)CC(=O)NCCC(C)(C)F)cc3)ncnc2c1 [Example 119] | 10 to 100 |
| 10 to 100 |  |  | 10 to 100 | 100 to 1000 | 100 to 1000 | COCCOc1cc(F)c2c(Nc3ccc(NC(=O)CC(=O)N4CCCC4C(F)(F)F)cc3)ncnc2c1 (centres unmarked) [Example 169] | 10 to 100 |
